Experimental data from patent US6281196A, “Isolation and structural elucidation of the human cancer cell growth inhibitory compound denominated agelagalastatin” (Arizona Board of Regents, priority 2000, dated 2001).
≈ marks a conversion by molar mass, not a printed value.

Assays:
lung NCI-H460 = assay: human cancer cell line growth inhibition, lung NCI-H460; format: cell-based; settings: drug dose needed to reduce the percent growth to 50%
Source text: (§1) The current cost to develop the necessary data required for lawful marketing of a new drug compound approaches ten million dollars per compound. Economics dictate that such a huge investment be made only when there is a reasonable likelihood that it can be recovered. Absent such a likelihood, there will be no investment and, without investment, the research requisite for the discovery of these potentially life saving compounds will cease. Current research in the control of cancer in the United States is coordinated by the National Cancer Institute (NCI). To determine whether a substance has anti-cancer properties, the NCI has established a systematic protocol. This protocol, which involves the testing of a substance against a standard cell line panel containing 60 human tumor cell lines, has been verified and is accepted in scientific circles. The protocol, and the established statistical means for analyzing the results obtained by the standardized testing are fully described in the literature. […]
(§2) Each drug is tested at five (5) doses: 100-10-1-0.1-0.01 μg/ml. Percent Growths are calculated for each dose. […]

ovary OVCAR-3 = assay: human cancer cell line growth inhibition, ovary OVCAR-3; format: cell-based; settings: drug dose needed to reduce the percent growth to 50%
Source text: as §1, §2

[1] = test system: human cancer cell lines (brain SF-295, renal A498, colon KM20L2, melanoma SK-MEL-5, lung NCI-H460, ovarian OVCAR-3); assay: in vitro activity against minipanel of human cancer cell lines; format: cell-based; settings: portion of minipanel including brain SF-295, renal A498, colon KM20L2 and melanoma SK-MEL-5
Source text: as §1, §2

murine melanoma B16 = settings: cited from earlier work
L1210 leukemia cell line = settings: cited from earlier work

Structure (SMILES): CCCCCCCCCCCCCCCCCCCCCC[C@@H](O)C(=O)N[C@@H](CO[C@H]1O[C@H](CO)[C@H](O)[C@H](O[C@@H]2O[C@@H]([C@@H](O)CO)[C@H](O)[C@H]2O[C@H]2O[C@@H]([C@@H](O)CO)[C@H](O)[C@H]2O)[C@H]1O)[C@H](O)[C@H](O)CCCCCCCCCCC(C)C [agelagalastatin]
- GI50 (lung NCI-H460): 0.77 µg/mL (≈ 0.666 µM)
- GI50 (ovary OVCAR-3): 2.8 µg/mL (≈ 2.42 µM)
- in vitro activity [1]: significant in vitro activity

Structure (SMILES): CCCCCCCCCCCCCCCCCCCCCCCCCC(=O)N[C@@H](CO[C@H]1O[C@H](CO)[C@H](O)[C@H](O)[C@H]1O)[C@H](O)[C@H](O)CCCCCCCCCCCCCC [structural modification (5)]
- in vivo active (murine melanoma B16): in vivo active

Structure (SMILES): CN1C(=O)NC2C3NC(=O)c4ccc(Br)n4C3CC21O (centres unmarked) [agelastatin A]
- cytotoxic (L1210 leukemia cell line): cytotoxic
